Laboratory results: patent US20260258048A1, “LACTAM-CONTAINING IMIDAZOPYRIDAZINE IL-17 INHIBITOR COMPOUNDS” (Janssen Pharmaceutica NV, priority 2023, published 2026)

System: IL-17A-induced G-CSF production in human normal keratinocyte (NHK)
Test: NHK assay: IL-17A-induced G-CSF production in normal human keratinocytes
Assay type: cell-based
Details: Homo sapiens, Keratinocyte, 24 h, IL-17A 5 ng/mL, class of the average IC50 where tested more than once
Experimental: IL-17A acts directly on keratinocytes through binding to dimeric receptor IL-17RA/RC and drives the production of a number of inflammatory mediators known to be elevated in psoriasis lesional tissue. IL-17A small molecule inhibitors that block the IL-17A to interact with IL-17R would inhibit the IL-17A signaling in its targeted cells such as keratinocytes. The compound functional activity is evaluated for its impact on IL-17A-induced G-CSF production in human normal keratinocyte (NHK).
Adult normal human keratinocytes are cultured in keratinocyte growth medium (Lonza) in a flask till reaching ~90% confluence, then cells are transferred to a 384-well plate at density of 3000-4000 cell/well. Recombinant human IL-17A (Gibco PHC9174) is pre-incubated with titrated compound or DMSO for 1 h at rt then added to the cell culture plate. The final concentration of IL-17A is 5 ng/mL and DMSO is 0.2%, in the culture containing 5% FBS. Cells are cultured/treated for 24 h at 37° C. Supernatants are collected and G-CSF production is measured through HTRF technology using Human G-CSF Kit (CisBio). G-CSF concentration was extrapolated from the standard curve and IC50 is determined using GraphPad Prism. Cell viability is also evaluated using CellTiter-Glo kit (Promega) and effect of compound on cell viability is compared to DMSO control.

SMILES | IC50
O=C(N[C@H](c1cn2ncc(C[C@@H]3C(=O)NCC[C@H]3C(F)(F)F)cc2n1)C1CCC(F)(F)CC1)c1nonc1C1CC1 (relative stereo) [Example 3, 4-Cyclopropyl-N—[(S)-(4,4-difluorocyclohexyl)-[7-[[(3S*,4R*)-2-oxo-4-(trifluoromethyl)-3-piperidyl]methyl]imidazo[1,2-b]pyridazin-2-yl]methyl]-1,2,5-oxadiazole-3-carboxamide] | > 4000 nM
O=C(N[C@H](c1cn2ncc(C[C@H]3C(=O)NCC[C@@H]3C(F)(F)F)cc2n1)C1CCC(F)(F)CC1)c1nonc1C1CC1 (relative stereo) [Example 4, 4-Cyclopropyl-N—[(S)-(4,4-difluorocyclohexyl)-[7-[[(3R*,4S*)-2-oxo-4-(trifluoromethyl)-3-piperidyl]methyl]imidazo[1,2-b]pyridazin-2-yl]methyl]-1,2,5-oxadiazole-3-carboxamide] | 400 to 4000 nM
O=C(N[C@H](c1cn2ncc(C[C@H]3CC[C@H](C(F)(F)F)NC3=O)cc2n1)C1CCC(F)(F)CC1)c1nonc1C1CC1 (relative stereo) [Example 29, 4-Cyclopropyl-N—((S)-(4,4-difluorocyclohexyl)(7-(((3R*,6R*)-2-oxo-6-(trifluoromethyl)piperidin-3-yl)methyl)imidazo[1,2-b]pyridazin-2-yl)methyl)-1,2,5-oxadiazole-3-carboxamide] | 400 to 4000 nM
O=C(N[C@H](c1cn2ncc(C[C@H]3CC[C@@H](C(F)(F)F)NC3=O)cc2n1)C1CCC(F)(F)CC1)c1nonc1C1CC1 (relative stereo) [Example 30, 4-Cyclopropyl-N—((S)-(4,4-difluorocyclohexyl)(7-(((3R*,6S*)-2-oxo-6-(trifluoromethyl)piperidin-3-yl)methyl)imidazo[1,2-b]pyridazin-2-yl)methyl)-1,2,5-oxadiazole-3-carboxamide] | > 4000 nM
O=C(N[C@H](c1cn2ncc(C[C@@H]3CC[C@H](C(F)(F)F)NC3=O)cc2n1)C1CCC(F)(F)CC1)c1nonc1C1CC1 (relative stereo) [Example 31, 4-Cyclopropyl-N—((S)-(4,4-difluorocyclohexyl)(7-(((3S*,6R*)-2-oxo-6-(trifluoromethyl)piperidin-3-yl)methyl)imidazo[1,2-b]pyridazin-2-yl)methyl)-1,2,5-oxadiazole-3-carboxamide] | < 400 nM
O=C(N[C@H](c1cn2ncc(C[C@@H]3CC[C@@H](C(F)(F)F)NC3=O)cc2n1)C1CCC(F)(F)CC1)c1nonc1C1CC1 (relative stereo) [Example 32, 4-Cyclopropyl-N—((S)-(4,4-difluorocyclohexyl)(7-(((3S*,6S*)-2-oxo-6-(trifluoromethyl)piperidin-3-yl)methyl)imidazo[1,2-b]pyridazin-2-yl)methyl)-1,2,5-oxadiazole-3-carboxamide] | > 4000 nM
O=C(N[C@H](c1cn2ncc(C[C@H]3C[C@@H](C(F)(F)F)CNC3=O)cc2n1)C1CCC(F)(F)CC1)c1nonc1C1CC1 (relative stereo) [Example 33, 4-Cyclopropyl-N—((S)-(4,4-difluorocyclohexyl)(7-(((3R*,5R*)-2-oxo-5-(trifluoromethyl)piperidin-3-yl)methyl)imidazo[1,2-b]pyridazin-2-yl)methyl)-1,2,5-oxadiazole-3-carboxamide] | 400 to 4000 nM
O=C(N[C@H](c1cn2ncc(C[C@H]3C[C@H](C(F)(F)F)CNC3=O)cc2n1)C1CCC(F)(F)CC1)c1nonc1C1CC1 (relative stereo) [Example 34, 4-Cyclopropyl-N—((S)-(4,4-difluorocyclohexyl)(7-(((3R*,5S*)-2-oxo-5-(trifluoromethyl)piperidin-3-yl)methyl)imidazo[1,2-b]pyridazin-2-yl)methyl)-1,2,5-oxadiazole-3-carboxamide] | > 4000 nM
CC(C)(CC[C@H](NC(=O)c1nonc1C1CC1)c1cn2ncc([C@@H](O)[C@H]3C[C@@H](C(F)(F)F)NC3=O)cc2n1)C(F)(F)F (relative stereo) [Example 66, 4-Cyclopropyl-N—((S)-5,5,5-trifluoro-1-(7-((S*)-hydroxy((3R*,5S)-2-oxo-5-(trifluoromethyl)pyrrolidin-3-yl)methyl)imidazo[1,2-b]pyridazin-2-yl)-4,4-dimethylpentyl)-1,2,5-oxadiazole-3-carboxamide] | 400 to 4000 nM
CC(C)(CC[C@H](NC(=O)c1nonc1C1CC1)c1cn2ncc([C@@H](O)[C@@H]3C[C@@H](C(F)(F)F)NC3=O)cc2n1)C(F)(F)F (relative stereo) [Example 67, 4-Cyclopropyl-N—((S)-5,5,5-trifluoro-1-(7-((S*)-hydroxy((3S*,5S)-2-oxo-5-(trifluoromethyl)pyrrolidin-3-yl)methyl)imidazo[1,2-b]pyridazin-2-yl)-4,4-dimethylpentyl)-1,2,5-oxadiazole-3-carboxamide] | > 4000 nM
C[C@@H]1C[C@@H](Cc2cnn3cc([C@@H](NC(=O)c4nonc4C4CC4)C4CCC(F)(F)CC4)nc3c2)C(=O)N1 (relative stereo) [Example 84, Cyclopropyl-N—((S)-(4,4-difluorocyclohexyl)(7-(((3R*,5R*)-5-methyl-2-oxopyrrolidin-3-yl)methyl)imidazo[1,2-b]pyridazin-2-yl)methyl)-1,2,5-oxadiazole-3-carboxamide] | > 4000 nM
C[C@H]1CNC(=O)[C@@H]1Cc1cnn2cc([C@@H](NC(=O)c3nonc3C3CC3)C3CCC(F)(F)CC3)nc2c1 (relative stereo) [Example 87, 4-Cyclopropyl-N—[(S)-(4,4-difluorocyclohexyl)-[7-[[(3R*,4R*)-4-methyl-2-oxo-pyrrolidin-3-yl]methyl]imidazo[1,2-b]pyridazin-2-yl]methyl]-1,2,5-oxadiazole-3-carboxamide] | > 4000 nM
CC[C@@H]1C[C@@H](Cc2cnn3cc([C@@H](NC(=O)c4nonc4C4CC4)C4CCC(F)(F)CC4)nc3c2)C(=O)N1 (relative stereo) [Example 90, 4-Cyclopropyl-N—[(S)-(4,4-difluorocyclohexyl)-[7-[[(3R*,5R*)-5-ethyl-2-oxo-pyrrolidin-3-yl]methyl]imidazo[1,2-b]pyridazin-2-yl]methyl]-1,2,5-oxadiazole-3-carboxamide] | < 400 nM
O=C(N[C@H](c1cn2ncc(CC3CC(C(F)(F)F)CNC3=O)cc2n1)C1CCC(F)(F)CC1)c1nonc1C1CC1 (single isomer, unassigned) [Example 35, 4-Cyclopropyl-N-((1S)-(4,4-difluorocyclohexyl)(7-(((3S*)-2-oxo-5-(trifluoromethyl)piperidin-3-yl)methyl)imidazo[1,2-b]pyridazin-2-yl)methyl)-1,2,5-oxadiazole-3-carboxamide] | 400 to 4000 nM
Cc1nonc1C(=O)N[C@@H](CCC(C)(C)C(F)(F)F)c1cn2ncc(C[C@H]3C[C@@H](C(F)(F)F)NC3=O)cc2n1 (single isomer, unassigned) [Example 37] | < 400 nM
C[C@@]1(C(F)(F)F)CC(Cc2cnn3cc([C@@H](NC(=O)c4nonc4C4CC4)C4CCC(F)(F)CC4)nc3c2)C(=O)N1 (single isomer, unassigned) [Example 55, 4-Cyclopropyl-N—((S)-(4,4-difluorocyclohexyl(7-(((3S*,5S)-5-methyl-2-oxo-5-(trifluoromethyl)pyrrolidine-3-yl)methyl)imidazo[1,2-b]pyrrolidin-2-yl)methyl)-1,2,5-oxadiazole-3-carboxamide] | < 400 nM
CC(C)(CC[C@H](NC(=O)c1nonc1C1CC1)c1cn2ncc(CC3C[C@@](C)(C(F)(F)F)NC3=O)cc2n1)C(F)(F)F (single isomer, unassigned) [Example 57, 4-Cyclopropyl-N—((S)-5,5,5-trifluoro-4,4-dimethyl-1-(7-(((3S*,5S)-5-methyl-2-oxo-5-(trifluoromethyl)pyrrolidin-3-yl)methyl)imidazo[1,2-b]pyridazin-2-yl)pentyl)-1,2,5-oxadiazole-3-carboxamide] | < 400 nM
COC[C@]1(Cc2cnn3cc([C@@H](NC(=O)c4nonc4C4CC4)C4CCC(F)(F)CC4)nc3c2)C[C@@H](C(F)(F)F)NC1=O (single isomer, unassigned) [Example 99] | < 400 nM
Cc1nonc1C(=O)N[C@H](c1cn2ncc([C@@](C)(O)[C@@]3(C)C[C@@H](C(F)(F)F)NC3=O)cc2n1)C1CCC(F)(F)CC1 [Example 106, N—((S)-(4,4-Difluorocyclohexyl)(7-((R)-1-hydroxy-1-((3R,5S)-3-methyl-2-oxo-5-(trifluoromethyl)pyrrolidin-3-yl)ethyl)imidazo[1,2-b]pyridazin-2-yl)methyl)-4-methyl-1,2,5-oxadiazole-3-carboxamide] | < 400 nM
